This note sets out measurements from patent US11370798B2 (Vertex Pharmaceuticals Incorporated, priority 2012, dated 2022).

This assay deals with HCT116 colorectal cancer cells. As to the kind of experiment: Cisplatin sensitization assay (96 h cell viability MTS).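 Further: Test-compound concentration that lowers the Cisplatin IC50 by a set fold.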 Type of assay: cell-based. The conditions noted are these: compound and Cisplatin added simultaneously, Cisplatin sensitization value. Put shortly: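 Compound and cisplatin added together as a full matrix of 2-fold serial dilutions from a top final concentration of 10 μM; cells incubated 96 h at 37° C, 5% CO2. Viability then read by MTS after 1 h further incubation; sensitization value reported in μM bins.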
`N#CCc1cnc2c(C(=O)Nc3cnccc3N3CCOC(CN)C3)c(N)nn2c1` (stereo not drawn) [I-N-90, 2-amino-N-(4-(2-(aminomethyl)morpholino)pyridin-3-yl)-6-(cyanomethyl)pyrazolo[1,5-a]pyrimidine-3-carboxamide]: the “Cisplatin Sensitization Assay” value is listed as “+ (Cisplatin sensitization value>0.2 μM but <5 μM)”.

Take `Nc1nn2cc(F)cnc2c1C(=O)Nc1cncc(F)c1N1CCN(C(=O)C2CC2)CC1` [I-N-276, 2-amino-N-(4-(4-(cyclopropanecarbonyl)piperazin-1-yl)-5-fluoropyridin-3-yl)-6-fluoropyrazolo[1,5-a]pyrimidine-3-carboxamide]: the “Cisplatin Sensitization Assay” value is listed as “+++ (Cisplatin sensitization value of <0.02 μM)”.

For `Cc1cncc(NC(=O)c2c(N)nn3cc(F)cnc23)c1-n1nccc1C` [I-N-237], the “Cisplatin Sensitization Assay” value was “+ (Cisplatin sensitization value>0.2 μM but <5 μM)”.

Take `Nc1nn2cc(F)cnc2c1C(=O)Nc1cnccc1O[C@H]1CCCN(C2COC2)C1` [I-O-9, (S)-2-amino-6-fluoro-N-(4-((1-(oxetan-3-yl)piperidin-3-yl)oxy)pyridin-3-yl)pyrazolo[1,5-a]pyrimidine-3-carboxamide]: the “Cisplatin Sensitization Assay” value is “++ (Cisplatin sensitization value>0.02 μM but <0.2 μM)”.

As for `Cn1cc(-c2ccncc2NC(=O)c2c(N)nn3cc(F)cnc23)ccc1=O` [I-C-59, 2-amino-6-fluoro-N-(1-methyl-6-oxo-1,6-dihydro-[3,4′-bipyridin]-3′-yl)pyrazolo[1,5-a]pyrimidine-3-carboxamide], the “Cisplatin Sensitization Assay” value was “++ (Cisplatin sensitization value>0.02 μM but <0.2 μM)”.

As to `Nc1nn2cc(F)cnc2c1C(=O)Nc1cnccc1-c1ccc(S(=O)(=O)N2CCC2)cc1` [I-C-64, 2-amino-N-(4-(4-(azetidin-1-ylsulfonyl)phenyl)pyridin-3-yl)-6-fluoropyrazolo[1,5-a]pyrimidine-3-carboxamide], the “Cisplatin Sensitization Assay” value was “+++ (Cisplatin sensitization value of <0.02 μM)”.

With `Cn1cncc1-c1ccncc1NC(=O)c1c(N)nn2cc(F)cnc12` [I-C-56, 2-amino-6-fluoro-N-(4-(1-methyl-1H-imidazol-5-yl)pyridin-3-yl)pyrazolo[1,5-a]pyrimidine-3-carboxamide], the “Cisplatin Sensitization Assay” value is on record as “+++ (Cisplatin sensitization value of <0.02 μM)”.

For `CC1(C)CN(c2ccncc2NC(=O)c2c(N)nn3cc(F)cnc23)CCS1(=O)=O` [I-N-252, 2-amino-N-(4-(2,2-dimethyl-1,1-dioxidothiomorpholino)pyridin-3-yl)-6-fluoropyrazolo[1,5-a]pyrimidine-3-carboxamide], the “Cisplatin Sensitization Assay” value is reported as “+++ (Cisplatin sensitization value of <0.02 μM)”.

Take `CN(C)CCOc1cc(Cl)ncc1NC(=O)c1c(N)nn2cc(Cl)cnc12` [I-O-68, 2-amino-6-chloro-N-(6-chloro-4-(2-(dimethylamino)ethoxy)pyridin-3-yl)pyrazolo[1,5-a]pyrimidine-3-carboxamide]: the “Cisplatin Sensitization Assay” value is given as “++ (Cisplatin sensitization value>0.02 μM but <0.2 μM)”.

In the case of `N#CC1CN(C(=O)C2CCN(c3ccncc3NC(=O)c3c(N)nn4cc(F)cnc34)CC2)C1` [I-G-81, 2-amino-N-(4-(4-(3-cyanoazetidine-1-carbonyl)piperidin-1-yl)pyridin-3-yl)-6-fluoropyrazolo[1,5-a]pyrimidine-3-carboxamide], the “Cisplatin Sensitization Assay” value was “+++ (Cisplatin sensitization value of <0.02 μM)”.

In the case of `CN(C)CCN(C)C(=O)C1CCN(c2c(F)cncc2NC(=O)c2c(N)nn3cc(F)cnc23)CC1` [I-G-31, 2-amino-N-(4-(4-((2-(dimethylamino)ethyl)(methyl)carbamoyl)piperidin-1-yl)-5-fluoropyridin-3-yl)-6-fluoropyrazolo[1,5-a]pyrimidine-3-carboxamide], the “Cisplatin Sensitization Assay” value was “+++ (Cisplatin sensitization value of <0.02 μM)”.

As for `CN1CCN(c2c(F)cncc2NC(=O)c2c(N)nn3cc(C(C)(C)C#N)cnc23)CC1` [I-N-138, 2-amino-6-(2-cyanopropan-2-yl)-N-(5-fluoro-4-(4-methylpiperazin-1-yl)pyridin-3-yl)pyrazolo[1,5-a]pyrimidine-3-carboxamide], the “Cisplatin Sensitization Assay” value is “++ (Cisplatin sensitization value>0.02 μM but <0.2 μM)”.

With `Nc1nn2cc(F)cnc2c1C(=O)Nc1cncc(F)c1N1CCN2C(=O)CCC[C@@H]2C1` [I-N-280, (R)-2-amino-6-fluoro-N-(5-fluoro-4-(6-oxohexahydro-1H-pyrido[1,2-a]pyrazin-2(6H)-yl)pyridin-3-yl)pyrazolo[1,5-a]pyrimidine-3-carboxamide], the “Cisplatin Sensitization Assay” value was “+++ (Cisplatin sensitization value of <0.02 μM)”.

As for `N#CCc1cnc2c(C(=O)Nc3cnccc3OCC(F)(F)F)c(N)nn2c1` [I-O-34, 2-amino-6-(cyanomethyl)-N-(4-(2,2,2-trifluoroethoxy)pyridin-3-yl)pyrazolo[1,5-a]pyrimidine-3-carboxamide], the “Cisplatin Sensitization Assay” value is on record as “++ (Cisplatin sensitization value>0.02 μM but <0.2 μM)”.

`Nc1nn2cc(F)cnc2c1C(=O)Nc1cnccc1N1CCN2CCOC[C@@H]2C1` [I-N-115, (S)-2-amino-6-fluoro-N-(4-(hexahydropyrazino[2,1-c][1,4]oxazin-8(1H)-yl)pyridin-3-yl)pyrazolo[1,5-a]pyrimidine-3-carboxamide]: the “Cisplatin Sensitization Assay” value is “+++ (Cisplatin sensitization value of <0.02 μM)”.

On to `CC(C)N1CCN2CCN(c3ccncc3NC(=O)c3c(N)nn4cc(F)cnc34)CC2C1=O` (stereo not drawn) [I-N-245, 2-amino-6-fluoro-N-(4-(8-isopropyl-9-oxohexahydro-1H-pyrazino[1,2-a]pyrazin-2(6H)-yl)pyridin-3-yl)pyrazolo[1,5-a]pyrimidine-3-carboxamide], for which the “Cisplatin Sensitization Assay” value is reported as “++ (Cisplatin sensitization value>0.02 μM but <0.2 μM)”.

With `Nc1nn2cc(F)cnc2c1C(=O)Nc1cncc(F)c1N1CCC(C(=O)N2CCN(C3CCC3)CC2)CC1` [I-G-35, 2-amino-N-(4-(4-(4-cyclobutylpiperazine-1-carbonyl)piperidin-1-yl)-5-fluoropyridin-3-yl)-6-fluoropyrazolo[1,5-a]pyrimidine-3-carboxamide], the “Cisplatin Sensitization Assay” value is “+++ (Cisplatin sensitization value of <0.02 μM)”.

Turning to `CN1CCC[C@@H]1COc1ccncc1NC(=O)c1c(N)nn2cc(Cl)cnc12` [I-O-49, (R)-2-amino-6-chloro-N-(4-((1-methylpyrrolidin-2-yl)methoxy)pyridin-3-yl)pyrazolo[1,5-a]pyrimidine-3-carboxamide], the “Cisplatin Sensitization Assay” value was “+ (Cisplatin sensitization value>0.2 μM but <5 μM)”.

As for `CN1CCN(C2CCN(c3c(F)cncc3NC(=O)c3c(N)nn4cc(F)cnc34)CC2)C(=O)C1` [I-N-151, 2-amino-6-fluoro-N-(5-fluoro-4-(4-(4-methyl-2-oxopiperazin-1-yl)piperidin-1-yl)pyridin-3-yl)pyrazolo[1,5-a]pyrimidine-3-carboxamide], the “Cisplatin Sensitization Assay” value is on record as “+ (Cisplatin sensitization value>0.2 μM but <5 μM)”.

Regarding `CN1CCC(OC2CCN(c3ccncc3NC(=O)c3c(N)nn4cc(F)cnc34)CC2)CC1` [I-N-154, 2-amino-6-fluoro-N-(4-(4-((1-methylpiperidin-4-yl)oxy)piperidin-1-yl)pyridin-3-yl)pyrazolo[1,5-a]pyrimidine-3-carboxamide], the “Cisplatin Sensitization Assay” value is on record as “+++ (Cisplatin sensitization value of <0.02 μM)”.

Take `Nc1nn2cc(F)cnc2c1C(=O)Nc1cncc(F)c1N1CCC(C(=O)N2CCN3CCC2CC3)CC1` [I-G-7, N-(4-(4-(1,4-diazabicyclo[3.2.2]nonane-4-carbonyl)piperidin-1-yl)-5-fluoropyridin-3-yl)-2-amino-6-fluoropyrazolo[1,5-a]pyrimidine-3-carboxamide]: the “Cisplatin Sensitization Assay” value is given as “+++ (Cisplatin sensitization value of <0.02 μM)”.

Turning to `CN(C)CC1CCN(c2ccncc2NC(=O)c2c(N)nn3cc(F)cnc23)CC1` [I-N-267, 2-amino-N-(4-(4-((dimethylamino)methyl)piperidin-1-yl)pyridin-3-yl)-6-fluoropyrazolo[1,5-a]pyrimidine-3-carboxamide], the “Cisplatin Sensitization Assay” value is “+++ (Cisplatin sensitization value of <0.02 μM)”.

Take `COCCN(C)C(=O)C1CCN(c2c(F)cncc2NC(=O)c2c(N)nn3cc(F)cnc23)CC1` [I-G-40, 2-amino-6-fluoro-N-(5-fluoro-4-(4-((2-methoxyethyl)(methyl)carbamoyl)piperidin-1-yl)pyridin-3-yl)pyrazolo[1,5-a]pyrimidine-3-carboxamide]: the “Cisplatin Sensitization Assay” value was “+++ (Cisplatin sensitization value of <0.02 μM)”.

Turning to `Nc1nn2cc(F)cnc2c1C(=O)Nc1cncc(F)c1N1CCC(C(=O)N2CCN(C3CC3)CC2)CC1` [I-G-13, 2-amino-N-(4-(4-(4-cyclopropylpiperazine-1-carbonyl)piperidin-1-yl)-5-fluoropyridin-3-yl)-6-fluoropyrazolo[1,5-a]pyrimidine-3-carboxamide], the “Cisplatin Sensitization Assay” value was “+++ (Cisplatin sensitization value of <0.02 μM)”.

As to `Nc1nn2cc(F)cnc2c1C(=O)Nc1cncc(F)c1N1CCC(C(=O)NCCN2CCC2)CC1` [I-G-42, 2-amino-N-(4-(4-((2-(azetidin-1-yl)ethyl)carbamoyl)piperidin-1-yl)-5-fluoropyridin-3-yl)-6-fluoropyrazolo[1,5-a]pyrimidine-3-carboxamide], the “Cisplatin Sensitization Assay” value was “+++ (Cisplatin sensitization value of <0.02 μM)”.

Take `CN(C)CCOCCOc1ccncc1NC(=O)c1c(N)nn2cc(Cl)cnc12` [I-O-47, 2-amino-6-chloro-N-(4-(2-(2-(dimethylamino)ethoxy)ethoxy)pyridin-3-yl)pyrazolo[1,5-a]pyrimidine-3-carboxamide]: the “Cisplatin Sensitization Assay” value is reported as “+ (Cisplatin sensitization value>0.2 μM but <5 μM)”.

In the case of `N#CCc1cnc2c(C(=O)Nc3cnccc3OCCCO)c(N)nn2c1` [I-O-40, 2-amino-6-(cyanomethyl)-N-(4-(3-hydroxypropoxy)pyridin-3-yl)pyrazolo[1,5-a]pyrimidine-3-carboxamide], the “Cisplatin Sensitization Assay” value is “++ (Cisplatin sensitization value>0.02 μM but <0.2 μM)”.
